“Also recorded” adds a separate entry of the source. Where two headings read alike, the source gives them in different places. Where a SMILES comes first, the peptide text is derived from it. The star is where a group is joined. Cbz = O=C(OCc1ccccc1)*
Tests used:
[1] = system: calpain; settings: described in literature, cited from earlier work
[2] = system: calpain; test: Calpain inhibition (statement, no method given); assay type: biochemical; settings: statement without data
[3] = system: zymosan induced paw oedema; test: Zymosan induced paw inflammation model (paw oedema); assay type: in vivo, rat; settings: for paw oedema (AUC of paw volume increase 0-8 h) versus control: 25 mg/kg i.p., 1.25 mg zymosan intraplantar, 25 mg/kg
Description: Unilateral hind paw inflammation and paw oedema was induced by subcutaneous injection of 1.25 mg zymosan (Sigma, München, Germany), suspended in 100 μl phosphate buffered saline (12.5 mg/ml), into the midplantar region of the right hind paw. After 24, 48 or 96 h animals were anaesthetized and killed by cardiac puncture. Spinal cords were excised, directly frozen in liquid nitrogen and then kept at −80° C. until further analysis. Paw oedema was induced by zymosan injection as described above. The paw volume was measured before and 0.25, 0.5, 1, 2, 4, 6, 8 and 24 h after zymosan injection using a plethysmometer (Ugo Basile, Varese, Italy). Six rats per group were used. At each time point five measurements of the paw volume were taken. The average of these five measurements was used for further analysis. […] Six animals were used for each treatment group. (Controls received 1 ml of vehicle.) Treatments were randomly allocated to animals and the observers were unaware of treatment allocations. The percent relative difference in paw withdrawal latency (ΔPWL) between the zymosan treated right and the untreated left hind paw, calculated as: ΔPWL=(right−left)/left×100, was used to asses antinociceptive effects. To evaluate anti-inflammatory effects, the relative difference between the paw volume before and after zymosan injection (ΔPV) was used. The areas under the ΔPWL versus time curves (AUCΔPWL) as well as the areas under the ΔPV versus time curves (AUCΔPV) were calculated using the linear trapezoidal rule. Statistical evaluation was done by SPSS 9.02 for Windows. Effects of study medications were assessed by submitting the AUCΔPV from 0-8 h to univariate analysis of variance (ANOVA) with subsequent t-tests employing a Bonferroni […]-correction for multiple comparisons. Statistical significance of ΔPWL was calculated by unpaired Student's t-test (zymosan-treated rats versus control rats). □ was set at 0.05.

[4] = system: zymosan induced thermal hyperalgesia; test: Zymosan induced thermal hyperalgesia (paw withdrawal latency, Hargreaves); assay type: in vivo, rat; settings: for thermal hyperalgesia (paw withdrawal latency): rats, 25 mg/kg i.p., 1.25 mg zymosan intraplantar, 25 mg/kg
Description: Unilateral hind paw inflammation and paw oedema was induced by subcutaneous injection of 1.25 mg zymosan (Sigma, München, Germany), suspended in 100 μl phosphate buffered saline (12.5 mg/ml), into the midplantar region of the right hind paw. After 24, 48 or 96 h animals were anaesthetized and killed by cardiac puncture. Spinal cords were excised, directly frozen in liquid nitrogen and then kept at −80° C. until further analysis. Nociceptive paw withdrawal latency to radial heat was assessed according to Hargreaves (Hargreaves et al., 1988), using a commercially available special device (Ugo Basile, Varese, Italy). Rats were placed in transparent plastic chambers (18×29×12.5 cm) on a metal grid (5×5 mm). The heat source consisting of a high projector lamp bulb was focused on the mid-plantar surface of the hind paw. The bulb and an electronic timer were simultaneously activated at the test start, and both were automatically inactivated when a photocell detected a paw withdrawal in response to the heat. Paw withdrawal latencies (PWL) of the right and left paw (treated and untreated paw) were recorded before and every 60 min up to 8 h and 24 h after zymosan injection. […] Six animals were used for each treatment group. (Controls received 1 ml of vehicle.) Treatments were randomly allocated to animals and the observers were unaware of treatment allocations. The percent relative difference in paw withdrawal latency (ΔPWL) between the zymosan treated right and the untreated left hind paw, calculated as: ΔPWL=(right−left)/left×100, was used to asses antinociceptive effects. […] The areas under the ΔPWL versus time curves (AUCΔPWL) as well as the areas under the ΔPV versus time curves (AUCΔPV) were calculated using the linear trapezoidal rule. […] Effects of study medications were assessed by submitting the AUCΔPV from 0-8 h to univariate analysis of variance (ANOVA) with subsequent t-tests employing a Bonferroni […]-correction for multiple comparisons. Statistical significance of ΔPWL was calculated by unpaired Student's t-test (zymosan-treated rats versus control rats). □ was set at 0.05.

[5] = system: m-calpain; test: Calpain protein expression in spinal cord after zymosan treatment (anti-m-calpain immunohistochemistry); assay type: in vivo, rat; settings: 96 h after zymosan, pre-treatment with inhibitor
Description: (§1) Unilateral hind paw inflammation and paw oedema was induced by subcutaneous injection of 1.25 mg zymosan (Sigma, München, Germany), suspended in 100 μl phosphate buffered saline (12.5 mg/ml), into the midplantar region of the right hind paw. After 24, 48 or 96 h animals were anaesthetized and killed by cardiac puncture. Spinal cords were excised, directly frozen in liquid nitrogen and then kept at −80° C. until further analysis.
(§2) Calpain inhibitor III (MDL 28170) (Calbiochem, Schwalbach/Ts., Germany) was dissolved in PEG 400/DMSO (1:1) at a concentration of 10 mg/ml. Animals received calpain inhibitor III either as a 12.5 mg/kg or a 25 mg/kg intraperitoneal (i.p.) bolus injection 20 min prior to the intraplantar injection of zymosan. Six animals were used for each treatment group. (Controls received 1 ml of vehicle.) Treatments were randomly allocated to animals and the observers were unaware of treatment allocations.
For immunohistochemical staining, the lumbal spinal cord segments were excised, directly frozen in liquid nitrogen and stored at −80° C. Fresh-frozen tissue sections (14 μm) were cut in a cryostat, mounted on gelatin-subbed slides, and fixed for 10 min in 4% paraformaldehyd in PBS (pH 7.4). Slides were washed with three 10-min washes in PBS and treated for 15 min with PBS containing 0.1% Triton-X 100. […]

[6] = following systemic administration; cited from earlier work
[7] = system: neurofilament light chain (NF-L); test: Neurofilament light chain (NF-L) degradation in spinal cord after zymosan treatment (immunohistochemistry); assay type: in vivo, rat; settings: for NF-L immunofluorescence in spinal cord slices: 96 h after zymosan, pre-treatment with inhibitor; for zymosan induced neurofilament degradation: rats, 12.5 mg/kg and 25 mg/kg i.p.
Description: as §1, §2
For immunohistochemical staining, the lumbal spinal cord segments were excised, directly frozen in liquid nitrogen and stored at −80° C. Fresh-frozen tissue sections (14 μm) were cut in a cryostat, mounted on gelatin-subbed slides, and fixed for 10 min in 4% paraformaldehyd in PBS (pH 7.4). Slides were washed with three 10-min washes in PBS and treated for 15 min with PBS containing 0.1% Triton-X 100. The sections were then blocked in 3% BSA in PBS for 1 h to reduce nonspecific binding and then incubated with pimary monoclonal antibody, anti-NFL (1:100; Sigma) and anti-m-calpain (1:50; Affinity BioReagents) for 1 h at 37° C. NF-L and m-calpain were flourescently labelled with a 1 h incubation at 37° C. with Cy3-conjugated secondary antibody (1:600; Sigma). Slides were washed with three 10-min washes in PBS after each incubation. Primary and secondary antibody incubations were performed in PBS containing 1% BSA. Slides were mounted with SlowFade Light Antifade mounting media according to manufacturer's protocol.
Immunohistochemistry was applied to determine the protein levels of neurofilament-L and calpain in rat spinal cord slices after zymosan treatment with and without additional administration of calpain inhibitor III.

[8] = system: calpain; test: Calpain activity of spinal cord extracts of zymosan treated rats (fluorometric cleavage of Ac-LLY-AFC); assay type: in vivo, rat
Description: as §1, §2

[9] = tested as described for calpain inhibitor III
[10] = listed as Calpain inhibitor III

Compound	calpain inhibition (calpain I and II) [1]	calpain inhibition [2]	effects on inflammation [3, 9]	effects on nociception [4, 9]	calpain (m-calpain) protein expression in spinal cord [5]	calpain (m-calpain) protein expression in spinal cord ([5]; listed as MDL-28170)	calpain inhibition (calpain I and II) ([1]; listed as MDL 28170)	blood-brain barrier penetration [6]	NF-L immunofluorescence in spinal cord slices [7]	NF-L immunofluorescence in spinal cord slices [7, 10]	zymosan induced neurofilament degradation [7]	zymosan induced neurofilament degradation ([7]; listed as MDL 28170)	paw oedema (AUC of paw volume increase 0-8 h) versus control ([3]; rats)	paw oedema (AUC of paw volume increase 0-8 h) versus control ([3]; rats, listed as Calpain inhibitor III)	paw inflammation (paw volume increase) ([3]; rats, doses of 12.5 and 25 mg/kg i.p.)	zymosan-induced protease (calpain) activation in the spinal cord ([8]; rats, 25 mg/kg i.p. 20 min prior to zymosan)	calpain activity of spinal cord extracts ([8]; zymosan treated rats, calpain inhibitor III 12.5 mg/kg or 25 mg/kg i.p. before zymosan (FIG. 2 legend))	thermal hyperalgesia (paw withdrawal latency) [4]	thermal hyperalgesia (paw withdrawal latency) [4, 10]
COc1ccc2c(c1)c(CC(=O)O)c(C)n2C(=O)c1ccc(Cl)cc1 [indomethacin]	calpain inhibiting activity	–	–	–	–	–	–	–	–	–	–	–	–	–	–	–	–	–	–
CC(C)[C@H](NC(=O)OCc1ccccc1)C(=O)N[C@H](C=O)Cc1ccccc1 [MDL-102935] (Cbz-Val-Phe-aldehyde)	–	inhibitor of calpain	the same as those of MDL-28170	the same as those of MDL-28170	–	–	–	–	–	–	–	–	–	–	–	–	–	–	–
CC(C)[C@H](NC(=O)OCc1ccccc1)C(=O)N[C@H](C=O)Cc1ccccc1 [calpain inhibitor III, Carbobenzoxy-valinyl-phenylalaninal] (Cbz-Val-Phe-aldehyde)	potent, selective and cell-permeable inhibitor of calpain 1 and II	–	–	–	not altered	not affected	potent, specific calpain inhibitor	rapidly penetrates the blood-brain barrier	immunofluorescence levels comparable to control slices of untreated rats	reduced the loss of NF-L	attenuated the zymosan induced neurofilament degradation	blocked the degradation of neurofilament protein	significantly reduced the paw edema; also recorded: statistically significant differences	significantly reduces the paw oedema	inhibited paw inflammation dose-dependently; also recorded: attenuates the development of zymosan induced paw inflammation	significantly inhibited	reduced	antinociceptive responses; also recorded: significantly higher paw withdrawal latency; also recorded: attenuates	significantly reduces thermal hyperalgesia
